Laboratory results from ChEMBL document CHEMBL4507291 (2021).

Assays:
[1] = target: T1, Mitogen-activated protein kinase 13 (Homo sapiens) (UniProt O15264); test: MAPK13 (p38 delta) Kinase screen; conditions: Compound concentration 1.0 uM
T1 sequence (whole entry): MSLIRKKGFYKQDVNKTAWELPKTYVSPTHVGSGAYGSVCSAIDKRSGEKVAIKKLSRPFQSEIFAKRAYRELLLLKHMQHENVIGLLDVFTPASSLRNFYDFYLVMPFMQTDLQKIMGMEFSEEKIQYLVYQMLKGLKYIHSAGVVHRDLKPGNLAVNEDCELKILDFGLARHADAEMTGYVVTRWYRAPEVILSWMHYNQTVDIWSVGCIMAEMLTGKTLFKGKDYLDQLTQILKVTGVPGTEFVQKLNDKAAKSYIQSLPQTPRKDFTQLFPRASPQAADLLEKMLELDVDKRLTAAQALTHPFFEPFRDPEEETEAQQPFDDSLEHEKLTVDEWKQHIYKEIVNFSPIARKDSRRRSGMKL

[2] = target: T2, Ephrin type-A receptor 8 (Homo sapiens) (UniProt P29322); test: EPHA8 Kinase screen; conditions: Compound concentration 1.0 uM
T2 sequence (whole entry): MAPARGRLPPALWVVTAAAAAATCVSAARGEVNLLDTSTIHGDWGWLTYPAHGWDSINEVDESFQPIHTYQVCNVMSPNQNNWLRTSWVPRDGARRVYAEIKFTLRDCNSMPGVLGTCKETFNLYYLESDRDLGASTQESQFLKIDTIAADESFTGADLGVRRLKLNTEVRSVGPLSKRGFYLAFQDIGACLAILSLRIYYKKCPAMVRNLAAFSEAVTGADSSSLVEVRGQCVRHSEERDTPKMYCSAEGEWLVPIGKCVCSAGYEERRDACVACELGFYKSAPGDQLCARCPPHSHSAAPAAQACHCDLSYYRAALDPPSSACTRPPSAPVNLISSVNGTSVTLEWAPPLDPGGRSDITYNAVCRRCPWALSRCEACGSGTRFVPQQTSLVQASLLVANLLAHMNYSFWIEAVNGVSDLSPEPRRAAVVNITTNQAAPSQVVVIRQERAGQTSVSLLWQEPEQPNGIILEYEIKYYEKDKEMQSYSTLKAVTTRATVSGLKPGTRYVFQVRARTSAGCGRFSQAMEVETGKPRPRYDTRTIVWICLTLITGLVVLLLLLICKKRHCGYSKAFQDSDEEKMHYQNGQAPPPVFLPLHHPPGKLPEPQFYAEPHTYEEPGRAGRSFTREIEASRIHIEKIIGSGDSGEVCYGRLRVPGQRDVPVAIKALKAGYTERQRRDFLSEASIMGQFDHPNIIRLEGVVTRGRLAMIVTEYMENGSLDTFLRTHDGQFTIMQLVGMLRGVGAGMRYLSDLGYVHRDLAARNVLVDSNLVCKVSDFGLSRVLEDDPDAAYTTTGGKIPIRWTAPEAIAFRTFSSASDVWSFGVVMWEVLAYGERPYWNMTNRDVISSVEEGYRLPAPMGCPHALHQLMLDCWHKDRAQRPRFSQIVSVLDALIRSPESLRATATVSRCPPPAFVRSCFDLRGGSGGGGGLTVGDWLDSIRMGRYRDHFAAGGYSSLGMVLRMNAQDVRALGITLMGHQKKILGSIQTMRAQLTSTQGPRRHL

[3] = target: Estrogen receptor (Homo sapiens) (UniProt P03372); conditions: Compound concentration 10.0 uM
Estrogen receptor (Homo sapiens), sequence (P03372 whole entry): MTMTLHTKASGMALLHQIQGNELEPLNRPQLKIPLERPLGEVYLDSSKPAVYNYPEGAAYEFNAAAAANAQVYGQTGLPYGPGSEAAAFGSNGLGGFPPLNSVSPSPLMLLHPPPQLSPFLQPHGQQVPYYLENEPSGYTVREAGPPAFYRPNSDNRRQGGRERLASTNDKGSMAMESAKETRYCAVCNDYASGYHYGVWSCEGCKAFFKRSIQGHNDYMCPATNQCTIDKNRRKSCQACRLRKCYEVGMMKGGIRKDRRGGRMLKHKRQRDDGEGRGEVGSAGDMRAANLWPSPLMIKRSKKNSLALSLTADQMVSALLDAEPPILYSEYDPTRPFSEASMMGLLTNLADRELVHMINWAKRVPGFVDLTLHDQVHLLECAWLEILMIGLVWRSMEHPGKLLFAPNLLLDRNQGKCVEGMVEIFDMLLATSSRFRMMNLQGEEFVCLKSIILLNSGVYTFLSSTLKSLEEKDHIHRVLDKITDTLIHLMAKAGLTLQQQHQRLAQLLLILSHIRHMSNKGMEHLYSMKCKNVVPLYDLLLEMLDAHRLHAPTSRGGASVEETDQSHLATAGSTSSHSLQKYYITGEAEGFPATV

[4] = tested on: Epidermal growth factor receptor (Homo sapiens), P00533 [L858R,T790M]; test: EGFR (ErbB1) T790M L858R Kinase screen; conditions: Compound concentration 1.0 uM
Epidermal growth factor receptor (Homo sapiens), P00533 [L858R,T790M], sequence (P00533 whole entry T790M/L858R, looked up): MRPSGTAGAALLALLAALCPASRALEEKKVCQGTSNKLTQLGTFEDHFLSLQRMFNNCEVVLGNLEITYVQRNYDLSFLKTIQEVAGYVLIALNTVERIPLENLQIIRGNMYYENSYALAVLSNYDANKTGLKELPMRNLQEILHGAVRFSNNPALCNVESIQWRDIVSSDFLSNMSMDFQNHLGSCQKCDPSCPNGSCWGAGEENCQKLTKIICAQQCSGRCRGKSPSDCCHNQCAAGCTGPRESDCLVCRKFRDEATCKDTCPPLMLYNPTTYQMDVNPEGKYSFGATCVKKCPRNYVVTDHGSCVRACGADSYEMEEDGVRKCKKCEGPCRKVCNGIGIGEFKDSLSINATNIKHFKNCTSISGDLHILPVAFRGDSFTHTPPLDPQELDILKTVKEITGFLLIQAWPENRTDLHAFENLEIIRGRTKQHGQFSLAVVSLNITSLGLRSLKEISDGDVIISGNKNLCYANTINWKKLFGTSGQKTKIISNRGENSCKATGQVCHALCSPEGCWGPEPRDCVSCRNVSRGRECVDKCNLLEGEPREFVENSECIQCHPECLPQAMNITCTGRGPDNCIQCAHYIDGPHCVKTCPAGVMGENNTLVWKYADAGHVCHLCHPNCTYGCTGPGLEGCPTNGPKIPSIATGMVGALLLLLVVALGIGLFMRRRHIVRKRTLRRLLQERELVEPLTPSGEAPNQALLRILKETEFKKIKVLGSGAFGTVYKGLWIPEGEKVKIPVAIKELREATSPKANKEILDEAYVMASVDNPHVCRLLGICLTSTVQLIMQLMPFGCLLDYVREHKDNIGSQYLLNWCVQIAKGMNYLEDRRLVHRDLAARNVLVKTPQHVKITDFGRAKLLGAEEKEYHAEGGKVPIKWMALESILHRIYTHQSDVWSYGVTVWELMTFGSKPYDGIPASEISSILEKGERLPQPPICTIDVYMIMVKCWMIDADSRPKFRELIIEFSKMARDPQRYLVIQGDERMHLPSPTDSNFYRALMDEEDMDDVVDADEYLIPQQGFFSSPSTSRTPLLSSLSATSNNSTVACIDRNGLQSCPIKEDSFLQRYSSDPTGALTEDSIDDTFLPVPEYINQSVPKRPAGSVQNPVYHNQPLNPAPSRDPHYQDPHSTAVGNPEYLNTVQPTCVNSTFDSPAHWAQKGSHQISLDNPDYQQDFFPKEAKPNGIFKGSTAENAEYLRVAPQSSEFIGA

[5] = target: GABA-A receptor; anion channel (Rattus norvegicus) (UniProt O09028+P15431+P18506+P18508+P19969+P20236+P23574+P23576+P28471+P28473+P30191+P62813+P63079+P63138+Q91ZM7+Q9ES14); conditions: Compound concentration 10.0 uM
Rattus norvegicus = species on record: Rattus norvegicus; test: GABAA, Ro-15-1788, Hippocampus Eurofins-Panlabs radioligand binding assay; parameters: ligand concentration 1 nM; conditions: Compound concentration 10.0 uM
[6] = target: CDK8/Cyclin C (Homo sapiens) (UniProt P49336+P24863); test: CDK8/cyclin C Kinase screen; format: protein-complex assay; conditions: Compound concentration 1.0 uM
[7] = target: Dual specificity tyrosine-phosphorylation-regulated kinase 1A (Homo sapiens) (UniProt Q13627); test: DYRK1A Kinase screen; conditions: Compound concentration 1.0 uM
[8] = target: Serine/threonine-protein kinase mTOR (Homo sapiens) (UniProt P42345); test: FRAP1 (mTOR) Kinase screen; conditions: Compound concentration 1.0 uM
[9] = target: T3, Inhibitor of nuclear factor kappa-B kinase subunit beta (Homo sapiens) (UniProt O14920); test: IKBKB (IKK beta) Kinase screen; conditions: Compound concentration 1.0 uM
T3 sequence (whole entry): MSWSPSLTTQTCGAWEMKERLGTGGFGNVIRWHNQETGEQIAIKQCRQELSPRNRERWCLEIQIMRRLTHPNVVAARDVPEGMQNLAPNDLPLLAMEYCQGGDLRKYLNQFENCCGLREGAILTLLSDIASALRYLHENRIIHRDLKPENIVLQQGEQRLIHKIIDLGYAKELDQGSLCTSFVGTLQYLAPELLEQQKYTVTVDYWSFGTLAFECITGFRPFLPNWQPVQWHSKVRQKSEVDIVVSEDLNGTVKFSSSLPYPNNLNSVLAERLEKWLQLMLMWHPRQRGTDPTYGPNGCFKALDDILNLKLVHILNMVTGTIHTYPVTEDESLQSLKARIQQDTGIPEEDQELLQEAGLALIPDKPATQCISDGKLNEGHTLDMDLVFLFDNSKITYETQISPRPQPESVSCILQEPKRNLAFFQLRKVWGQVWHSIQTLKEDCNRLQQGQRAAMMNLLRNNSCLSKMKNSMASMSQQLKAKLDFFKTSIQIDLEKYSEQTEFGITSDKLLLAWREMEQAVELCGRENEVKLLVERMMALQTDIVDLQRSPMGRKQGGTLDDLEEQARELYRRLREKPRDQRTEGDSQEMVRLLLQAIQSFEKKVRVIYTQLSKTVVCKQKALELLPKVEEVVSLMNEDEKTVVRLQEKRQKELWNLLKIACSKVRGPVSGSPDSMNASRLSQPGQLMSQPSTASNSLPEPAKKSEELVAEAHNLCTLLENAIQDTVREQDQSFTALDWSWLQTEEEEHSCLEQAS

[10] = target: Serine/threonine-protein kinase PAK 3 (Homo sapiens) (UniProt O75914); test: PAK3 Kinase screen; conditions: Compound concentration 1.0 uM
Serine/threonine-protein kinase PAK 3 (Homo sapiens), sequence (O75914 whole entry, looked up): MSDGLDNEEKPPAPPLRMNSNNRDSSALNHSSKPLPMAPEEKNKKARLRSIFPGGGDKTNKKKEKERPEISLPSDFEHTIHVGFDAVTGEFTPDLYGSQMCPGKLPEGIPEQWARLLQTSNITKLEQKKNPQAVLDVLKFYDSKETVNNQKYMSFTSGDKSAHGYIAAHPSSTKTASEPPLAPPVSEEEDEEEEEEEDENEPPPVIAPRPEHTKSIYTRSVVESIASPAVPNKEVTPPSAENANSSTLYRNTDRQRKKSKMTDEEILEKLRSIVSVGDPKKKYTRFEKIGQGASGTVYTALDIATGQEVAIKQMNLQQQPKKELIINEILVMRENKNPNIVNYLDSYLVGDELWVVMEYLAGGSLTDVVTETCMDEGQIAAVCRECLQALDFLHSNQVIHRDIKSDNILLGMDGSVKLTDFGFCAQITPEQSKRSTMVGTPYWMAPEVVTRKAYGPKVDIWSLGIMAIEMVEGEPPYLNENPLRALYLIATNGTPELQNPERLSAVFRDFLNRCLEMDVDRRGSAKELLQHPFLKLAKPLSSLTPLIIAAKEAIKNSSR

[11] = tested on: Proto-oncogene tyrosine-protein kinase receptor Ret (Homo sapiens), P07949 [Y791F]; test: RET Y791F Kinase screen; conditions: Compound concentration 1.0 uM
Proto-oncogene tyrosine-protein kinase receptor Ret (Homo sapiens), P07949 [Y791F], sequence (P07949 whole entry Y791F): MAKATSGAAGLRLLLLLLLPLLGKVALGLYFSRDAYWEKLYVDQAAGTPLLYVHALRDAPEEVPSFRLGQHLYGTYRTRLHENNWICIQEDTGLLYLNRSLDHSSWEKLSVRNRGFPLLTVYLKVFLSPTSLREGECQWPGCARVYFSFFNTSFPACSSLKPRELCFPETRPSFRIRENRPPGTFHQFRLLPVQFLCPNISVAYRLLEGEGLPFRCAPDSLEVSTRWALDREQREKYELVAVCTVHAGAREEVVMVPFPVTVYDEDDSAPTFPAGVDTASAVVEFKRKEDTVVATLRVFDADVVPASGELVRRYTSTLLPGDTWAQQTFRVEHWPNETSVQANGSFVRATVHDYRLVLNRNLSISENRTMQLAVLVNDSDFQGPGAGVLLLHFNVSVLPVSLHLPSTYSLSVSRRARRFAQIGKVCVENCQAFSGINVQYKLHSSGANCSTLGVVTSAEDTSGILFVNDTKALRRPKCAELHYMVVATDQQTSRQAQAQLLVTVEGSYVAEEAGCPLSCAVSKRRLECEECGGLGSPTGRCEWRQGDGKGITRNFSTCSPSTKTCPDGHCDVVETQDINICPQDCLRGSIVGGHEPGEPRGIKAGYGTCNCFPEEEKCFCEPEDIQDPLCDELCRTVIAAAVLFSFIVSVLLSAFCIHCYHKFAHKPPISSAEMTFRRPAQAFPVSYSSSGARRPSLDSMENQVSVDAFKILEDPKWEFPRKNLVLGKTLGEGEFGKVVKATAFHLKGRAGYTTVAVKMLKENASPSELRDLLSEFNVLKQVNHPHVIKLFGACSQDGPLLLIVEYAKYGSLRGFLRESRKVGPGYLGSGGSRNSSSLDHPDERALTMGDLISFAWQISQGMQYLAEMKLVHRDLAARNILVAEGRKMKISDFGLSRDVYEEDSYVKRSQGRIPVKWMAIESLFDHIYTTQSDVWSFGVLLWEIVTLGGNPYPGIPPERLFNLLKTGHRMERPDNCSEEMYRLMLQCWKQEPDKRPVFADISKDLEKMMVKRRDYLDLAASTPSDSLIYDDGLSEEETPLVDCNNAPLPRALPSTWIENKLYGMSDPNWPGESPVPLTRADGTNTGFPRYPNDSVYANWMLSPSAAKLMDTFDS

Measured: inhibition

C[C@@H]1CN(c2cc(-c3n[nH]c4ccc(OC5(C)CC5)cc34)ncn2)C[C@H](C)O1 [MLi-2]
inactive: [1] 4.25% | [2] 7.44% | [3] 8% | [4] 2.37% | [5] 35% | Rattus norvegicus 1% | [6] 8.75% | [7] 4.36% | [8] 7.14% | [9] -0.0171% | [10] 10.9% | [11] 5.35%
